The text below walks through data of ChEMBL document CHEMBL5532679, “Discovery and Characterization of RGH-122, a Potent, Selective, and Orally Bioavailable V1a Receptor Antagonist” (J Med Chem, 2024).

Bounds are passed on as bounds.

As a reminder, the microsomal CLint is the capacity of the preparation to metabolise the compound, expressed as a volume cleared per time. High values mean faster metabolism, low ones greater metabolic stability. Broadly, the IC50 is the midpoint of a concentration-inhibition curve. What is called Papp A→B is how fast a substance crosses the layer from the apical side. What is called efflux ratio is a quotient of directional permeabilities that is used to spot active efflux. By Ki is commonly meant a measure of affinity in units of concentration, obtained from inhibition or displacement. A high value points to weaker binding.

For series [1] the following is noted: human, microsomes, 1 µM.
Series [2] in a line: in vitro. The following applies: Wistar, rat, microsomes.
Series [3] deals with T1, Vasopressin V1a receptor (Homo sapiens, UniProt P37288).
T1 sequence (P37288 whole entry): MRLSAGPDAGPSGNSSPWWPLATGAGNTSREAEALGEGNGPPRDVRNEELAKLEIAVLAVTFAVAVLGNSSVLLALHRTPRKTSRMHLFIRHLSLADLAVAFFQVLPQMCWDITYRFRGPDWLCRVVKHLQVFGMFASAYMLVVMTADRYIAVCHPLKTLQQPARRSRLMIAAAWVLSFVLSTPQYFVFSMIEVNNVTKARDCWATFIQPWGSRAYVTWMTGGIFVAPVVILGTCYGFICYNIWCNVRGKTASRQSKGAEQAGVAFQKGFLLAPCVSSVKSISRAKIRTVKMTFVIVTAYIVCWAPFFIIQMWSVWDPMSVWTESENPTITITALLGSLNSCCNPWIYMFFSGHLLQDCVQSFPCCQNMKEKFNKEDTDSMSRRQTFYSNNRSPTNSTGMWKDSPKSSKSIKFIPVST
Description: Antagonist activity at human V1A receptor expressed in human 1321N1 cells assessed as Ca2+ mobilization incubated for 15 mins by FLIPR calcium 5 assay
The nature of series [4]: in vitro. The following applies: NMRI, mouse, microsomes.
A short description of series [5]: in vitro. The following applies: human, microsomes.
Series [6] can be described thus: in vitro. The following applies: CD-1, mouse, liver microsomes.
Series [7] is described as follows: Apparent permeability of compound across apical to basal side in vinblastine treated human Caco-2 cells at 1 to 10 uM incubated for 15 to 60 mins by HPLC analysis.
The nature of series [8]: Efflux ratio of apparent permeability across basolateral to apical side over apical to basolateral side in vinblastine treated human Caco-2 cells at 1 to 10 uM incubated for 15 to 60 hrs by HPLC analysis.
Series [9] is described as follows: animal or person. To be noted: Mus musculus, NMRI, po, read-out: INH.
The target of series [10] is Voltage-gated inwardly rectifying potassium channel KCNH2 (Homo sapiens, UniProt Q12809).
Voltage-gated inwardly rectifying potassium channel KCNH2, sequence (Q12809 whole entry): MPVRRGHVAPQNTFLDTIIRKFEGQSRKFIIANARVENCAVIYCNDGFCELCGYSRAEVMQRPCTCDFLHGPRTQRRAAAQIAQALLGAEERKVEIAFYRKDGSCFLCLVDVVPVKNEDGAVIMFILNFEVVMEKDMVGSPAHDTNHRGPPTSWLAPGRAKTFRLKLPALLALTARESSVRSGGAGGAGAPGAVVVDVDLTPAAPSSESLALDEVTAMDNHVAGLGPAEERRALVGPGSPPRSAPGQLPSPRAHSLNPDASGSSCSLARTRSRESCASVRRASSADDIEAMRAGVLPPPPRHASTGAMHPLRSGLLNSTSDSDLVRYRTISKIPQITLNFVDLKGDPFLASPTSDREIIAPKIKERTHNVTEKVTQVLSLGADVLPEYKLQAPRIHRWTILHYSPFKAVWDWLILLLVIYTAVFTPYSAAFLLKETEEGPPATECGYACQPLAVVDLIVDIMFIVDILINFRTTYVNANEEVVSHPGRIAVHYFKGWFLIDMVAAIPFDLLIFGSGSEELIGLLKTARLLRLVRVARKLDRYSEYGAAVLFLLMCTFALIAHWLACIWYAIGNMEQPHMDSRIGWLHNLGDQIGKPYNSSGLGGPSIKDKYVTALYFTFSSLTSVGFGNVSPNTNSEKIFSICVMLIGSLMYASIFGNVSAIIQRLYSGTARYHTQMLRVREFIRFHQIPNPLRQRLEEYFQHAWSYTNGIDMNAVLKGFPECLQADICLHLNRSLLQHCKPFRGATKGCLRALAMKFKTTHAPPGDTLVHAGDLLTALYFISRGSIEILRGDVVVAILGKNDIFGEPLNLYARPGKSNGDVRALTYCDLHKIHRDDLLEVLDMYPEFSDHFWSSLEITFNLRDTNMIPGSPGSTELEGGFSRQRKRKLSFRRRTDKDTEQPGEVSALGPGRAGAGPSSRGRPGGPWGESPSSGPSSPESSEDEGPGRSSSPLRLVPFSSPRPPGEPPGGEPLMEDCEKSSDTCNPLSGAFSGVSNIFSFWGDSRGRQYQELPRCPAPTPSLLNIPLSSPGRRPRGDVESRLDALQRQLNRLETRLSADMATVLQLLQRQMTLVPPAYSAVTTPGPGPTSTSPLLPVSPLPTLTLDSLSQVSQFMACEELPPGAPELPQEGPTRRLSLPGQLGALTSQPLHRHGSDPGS
Description: Inhibition of hERG expressed in CHO cells at -80 mV holding potential incubated for 7 to 10 mins by automated patch clamp method
The nature of series [11]: animal or person. The following applies: Mus musculus, NMRI, po, read-out: INH. The source holds these as a separate data set.
Series [12] concerns the target T1, Vasopressin V1a receptor. This is another data set of the same source.
Description: Displacement of [3H]vasopressin from human V1A receptor assessed as inhibition constant by Cheng-Prusoff equation analysis
Series [13] is described as follows: animal or person. To be noted: Mus musculus, NMRI, read-out: INH.

On to `Clc1ccc2c(c1)CC1(Cc3nnc([C@H]4CC[C@H](Oc5ccccn5)CC4)n3-2)OCCCCO1`, for which the CLH in series [1] amounted to 10.2 mL/h/kg. The microsomal CLint at 1 µM came to 229 µL/min/mg in the series “in vitro [2]” and 211 µL/min/mg in “in vitro [4]”. Further, it took 1.1 nM to reach half-maximal inhibition against Vasopressin V1a receptor [3] (IC50).
`CN(C)CCC(=O)N[C@@H]1Cc2cc(Cl)ccc2-n2c(nnc2[C@H]2CC[C@H](Oc3ccccn3)CC2)C1`: the figures for the microsomal CLint at 1 µM in “in vitro [5]”, in “in vitro [2]” and in the series “in vitro [6]” were 15 µL/min/mg, 29 µL/min/mg and 96 µL/min/mg, respectively.
Turning to `CC(C)(O)C(=O)N[C@@H]1Cc2cc(Cl)ccc2-n2c(nnc2[C@H]2CC[C@H](Oc3ccccn3)CC2)C1`, the Papp A→B at 10 µM in series [7] was determined as 1.8 ×10⁻⁶ cm/s. Also, the microsomal CLint at 1 µM in “in vitro [5]” came out at 1 µL/min/mg; in “in vitro [2]”, 3 µL/min/mg; in “in vitro [6]” it was 16 µL/min/mg. For the same compound, in [8], the efflux ratio at 10 µM came out at 37.
On to `CC(=O)N[C@@H]1Cc2cc(Cl)ccc2-n2c(nnc2[C@H]2CC[C@H](Oc3ccccn3)CC2)C1`, for which the apparent permeability from apical to basolateral (Papp A→B) at 10 µM in [7] was 2.7 ×10⁻⁶ cm/s. Besides, the microsomal CLint at 1 µM in the series “in vitro [5]” came out at 0.2 µL/min/mg; in “in vitro [2]” it was 1 µL/min/mg; in the series “in vitro [6]” it was 4 µL/min/mg. The efflux ratio at 10 µM in [8] worked out at 14.
Turning to `O=C1Cc2cc(Cl)ccc2-n2c(nnc2[C@H]2CC[C@H](Oc3ccccn3)CC2)C1`, the inhibition in vivo at 10 mg/kg in “animal or person [9]” came to 70%. Also, the IC50 in series [10] was > 30000 nM. Also, the CLH in series [1] was 7.44 mL/h/kg. The microsomal CLint at 1 µM in the series “in vitro [2]” amounted to 43 µL/min/mg; in “in vitro [4]”, 36 µL/min/mg. Moreover, the inhibition in vivo at 3 mg/kg in the series “animal or person [11]” amounted to 58%.
Turning to `Clc1ccc2c(c1)CC1(CCCOC1)Cc1nnc([C@H]3CC[C@H](Oc4ccccn4)CC3)n1-2` (some centres not stated), the Ki on Vasopressin V1a receptor [12] was determined as 0.3 nM. This compound also gave a CLH in series [1] of 15.4 mL/h/kg. Further, the figures for the intrinsic clearance (microsomal CLint) at 1 µM in “in vitro [2]” and in “in vitro [6]” were 267 µL/min/mg and 263 µL/min/mg, respectively. This compound also yielded an IC50 on Vasopressin V1a receptor [3] of 23 nM.
On to `Clc1ccc2c(c1)CC1(Cc3nnc([C@H]4CC[C@H](N5CCOCC5)CC4)n3-2)OCCO1`, for which the Papp A→B at 10 µM in series [7] was 4.5 ×10⁻⁶ cm/s. The compound also had an IC50 in [10] of 3500 nM. Also, the intrinsic clearance (microsomal CLint) at 1 µM in the series “in vitro [2]” turned out to be 6 µL/min/mg; in the series “in vitro [6]”, 7 µL/min/mg. Moreover, the efflux ratio at 10 µM in series [8] was determined as 15.
Consider `N#CCC(=O)N[C@@H]1Cc2cc(Cl)ccc2-n2c(nnc2[C@H]2CC[C@H](Oc3ccccn3)CC2)C1`, for which, in [7], the Papp A→B at 10 µM was determined as 0.5 ×10⁻⁶ cm/s. In addition, the microsomal CLint at 1 µM in the series “in vitro [5]” came out at 13 µL/min/mg; in the series “in vitro [2]”, 15 µL/min/mg; in “in vitro [6]”, 19 µL/min/mg. In series [8], the efflux ratio at 10 µM was determined as 118.
`CC(C)NC1Cc2ccccc2-n2c(nnc2[C@H]2CC[C@H](Oc3ccccn3)CC2)C1` (some centres not stated) yielded an inhibitory constant (Ki) on Vasopressin V1a receptor [12] of 5.6 nM. Also, the inhibition in vivo at 3 mg/kg in the series “animal or person [11]” is 18%.
Turning to `CO[C@H]1Cc2cc(Cl)ccc2-n2c(nnc2[C@H]2CC[C@H](Oc3ccccn3)CC2)C1`, in series [7], the Papp A→B at 10 µM stood at 40 ×10⁻⁶ cm/s. The Ki on Vasopressin V1a receptor [12] was 2 nM. Further, the inhibition in vivo at 10 mg/kg in “animal or person [9]” amounted to 71%. For the same compound, the IC50 was determined as 10200 nM in [10] and 0.6 nM at Vasopressin V1a receptor [3]. Besides, the microsomal CLint at 1 µM stood at 33 µL/min/mg in “in vitro [2]” and 66 µL/min/mg in the series “in vitro [6]”. Also, the inhibition in vivo at 3 mg/kg in “animal or person [11]” amounted to 69%. The efflux ratio at 10 µM in [8] came out at 2.7.
Consider `O=C(N[C@@H]1Cc2cc(Cl)ccc2-n2c(nnc2[C@H]2CC[C@H](Oc3ccccn3)CC2)C1)C1CC1`, for which the apical-to-basolateral permeability (Papp A→B) at 10 µM in series [7] was 4.3 ×10⁻⁶ cm/s. Besides, the intrinsic metabolic clearance (microsomal CLint) at 1 µM in “in vitro [5]” amounted to 1 µL/min/mg; in “in vitro [2]”, 1 µL/min/mg; in “in vitro [6]”, 22 µL/min/mg. Besides, in series [8], the efflux ratio at 10 µM came out at 14.6.
Take `CC(C)(C)C(=O)N[C@@H]1Cc2cc(Cl)ccc2-n2c(nnc2[C@H]2CC[C@H](Oc3ccccn3)CC2)C1`: the intrinsic metabolic clearance (microsomal CLint) at 1 µM came out at 49 µL/min/mg in “in vitro [5]”, 77 µL/min/mg in the series “in vitro [2]” and 242 µL/min/mg in “in vitro [6]”.
`Clc1ccc2c(c1)CC1(CCOC1)Cc1nnc([C@H]3CC[C@H](Oc4ccccn4)CC3)n1-2` (some centres not stated) had an inhibitory constant (Ki) at Vasopressin V1a receptor [12] of 0.3 nM. In addition, in series [1], the CLH stood at 1.56 mL/h/kg. The intrinsic clearance (microsomal CLint) at 1 µM came out at 42 µL/min/mg in “in vitro [2]” and 80 µL/min/mg in “in vitro [6]”. Further, the IC50 on Vasopressin V1a receptor [3] was 1.3 nM.
With `O=C(N[C@@H]1Cc2cc(Cl)ccc2-n2c(nnc2[C@H]2CC[C@H](Oc3ccccn3)CC2)C1)C1CCC1`, the intrinsic metabolic clearance (microsomal CLint) at 1 µM in “in vitro [5]” was 157 µL/min/mg; in the series “in vitro [2]”, 86 µL/min/mg; in “in vitro [6]”, 91 µL/min/mg.
For the compound `COCC1Cc2cc(Cl)ccc2-n2c(nnc2[C@H]2CC[C@H](Oc3ccccn3)CC2)C1` (some centres not stated), the Papp A→B at 10 µM in [7] came out at 30 ×10⁻⁶ cm/s. Besides, at Vasopressin V1a receptor [12], affinity was put at a Ki of 0.6 nM. This compound yielded a CLH in [1] of 2.76 mL/h/kg. Also, the efflux ratio at 10 µM in series [8] is 1. For the same compound, the half-maximal inhibitory concentration (IC50) against Vasopressin V1a receptor [3] amounted to 0.8 nM. Moreover, the microsomal CLint at 1 µM in the series “in vitro [4]” was determined as 126 µL/min/mg.
As to `CN1Cc2cc(Cl)ccc2-n2c(nnc2[C@H]2CC[C@H](Oc3ccccn3)CC2)C1` [BALOVAPTAN], the Papp A→B at 10 µM in series [7] came out at 51 ×10⁻⁶ cm/s. Also, in the series “animal or person [9]”, the inhibition in vivo at 10 mg/kg was 69%. The same compound registered an IC50 in series [10] of 21000 nM. In addition, in [1], the CLH stood at 51 µL/min/mg. The results for the microsomal CLint at 1 µM in “in vitro [2]” and in the series “in vitro [4]” were 17 µL/min/mg and 22 µL/min/mg, respectively. For the same compound, the inhibition in vivo at 3 mg/kg in the series “animal or person [11]” is 7%.
As to `Clc1cnc2n1CCCc1nnc([C@H]3CC[C@H](Oc4ccccn4)CC3)n1-2`, the inhibition in vivo at 10 mg/kg in the series “animal or person [13]” is 32%. For the same compound, in series [1], the CLH stood at 41 µL/min/mg. In addition, the microsomal CLint at 1 µM in “in vitro [2]” is 12 µL/min/mg; in the series “in vitro [4]”, 15 µL/min/mg. For the same compound, the efflux ratio at 10 µM in series [8] turned out to be 0.8. For the same compound, on Vasopressin V1a receptor [3], half-maximal inhibition (IC50) required 178 nM.
`O=C(N[C@@H]1Cc2cc(Cl)ccc2-n2c(nnc2[C@H]2CC[C@H](Oc3ccccn3)CC2)C1)C1CCC(F)(F)CC1`: the values for the intrinsic metabolic clearance (microsomal CLint) at 1 µM in the series “in vitro [5]”, in the series “in vitro [2]” and in “in vitro [6]” were 34 µL/min/mg, 32 µL/min/mg and 154 µL/min/mg, respectively.
On to `FC(F)(F)[C@H]1CC[C@H](c2nnc3n2-c2ccc(Cl)cc2CC2(C3)OCCO2)CC1`, for which the Papp A→B at 10 µM in series [7] was 39 ×10⁻⁶ cm/s. For the same compound, in the series “animal or person [9]”, the inhibition in vivo at 10 mg/kg was 41%. Further, in series [10], the IC50 is > 30000 nM. In series [1], this compound came in with a CLH of 0.012 mL/h/kg. Also, the microsomal CLint at 1 µM in the series “in vitro [2]” is 16 µL/min/mg; in the series “in vitro [4]”, 34 µL/min/mg. Moreover, the inhibition in vivo at 3 mg/kg in the series “animal or person [11]” is 0%. Further, the efflux ratio at 10 µM in [8] came out at 1.
As for `O=C(N[C@@H]1Cc2cc(Cl)ccc2-n2c(nnc2[C@H]2CC[C@H](Oc3ccccn3)CC2)C1)C(F)(F)F`, in series [7], the Papp A→B at 10 µM came to 11 ×10⁻⁶ cm/s. Further, the intrinsic clearance (microsomal CLint) at 1 µM in “in vitro [5]” worked out at 2 µL/min/mg; in “in vitro [2]”, 4 µL/min/mg; in the series “in vitro [6]” it was 18 µL/min/mg. Besides, the efflux ratio at 10 µM in series [8] was 2.9.
On to `CO[C@]1(C)CC[C@@H](c2nnc3n2-c2ccc(Cl)cc2CC2(C3)OCCO2)CC1`, for which the Papp A→B at 10 µM in [7] was 42 ×10⁻⁶ cm/s. In “animal or person [9]”, the inhibition in vivo at 10 mg/kg amounted to 41%. Also, the IC50 in series [10] was > 30000 nM. Also, the intrinsic metabolic clearance (microsomal CLint) at 1 µM came to 12 µL/min/mg in “in vitro [2]” and 16 µL/min/mg in “in vitro [4]”. The inhibition in vivo at 3 mg/kg in “animal or person [11]” was found to be 0%. Also, the efflux ratio at 10 µM in series [8] worked out at 1.
